According to publication PMC9516332 (Frontiers in Oncology, 2022):
Read-outs that look alike come from different tables or passages of the source.

What was measured:
134 cancer cell lines [1] = system: 134 cancer cell lines
AP-1060 (ETV6-NTRK3) = test: Cell viability assay; conditions: read-out: IC50 in cell proliferation assay
134 cancer cell lines [2] = test: Cell viability assay (ATPlite, 72 hours), IC50 on cancer cell line panel

`Cn1cnc2c(F)c(Nc3ccc(Br)cc3Cl)c(C(=O)NOCCO)cc21` [selumetinib] gave an IC50 (134 cancer cell lines [1]) of 99 nM, an IC50 (AP-1060 (ETV6-NTRK3)) of over 31600 nM and an IC50 (134 cancer cell lines [2]; HEC-6, read-out: IC50 in cell proliferation assay, HEC-6 cell line (EGFR p.A289V)) of over 31600 nM. The IC50 (134 cancer cell lines [2]; Homo sapiens, 769-P, read-out: IC50 in cell proliferation assay, cell line 769-P) was 665 nM, the IC50 (134 cancer cell lines [2]; Homo sapiens, 786-0, read-out: IC50 in cell proliferation assay, cell line 786-O) was over 31600 nM and the IC50 (134 cancer cell lines [2]; Homo sapiens, A 172, read-out: IC50 in cell proliferation assay, cell line A-172) was 25300 nM. The IC50 (134 cancer cell lines [2]; Homo sapiens, A204, read-out: IC50 in cell proliferation assay, cell line A-204) was over 31600 nM, the IC50 (134 cancer cell lines [2]; Homo sapiens, A498, read-out: IC50 in cell proliferation assay, cell line A-498) was 137 nM and the IC50 (134 cancer cell lines [2]; Homo sapiens, A549, read-out: IC50 in cell proliferation assay, cell line A-549) was 132 nM. It also gave an IC50 (134 cancer cell lines [2]; Homo sapiens, A704, read-out: IC50 in cell proliferation assay, cell line A-704) of over 31600 nM, an IC50 (134 cancer cell lines [2]; Homo sapiens, A-375, read-out: IC50 in cell proliferation assay, cell line A-375 (BRAF p.V600E)) of 145 nM and an IC50 (134 cancer cell lines [2]; Homo sapiens, A-427, read-out: IC50 in cell proliferation assay, cell line A-427) of 1340 nM. For the same compound, the IC50 (134 cancer cell lines [2]; Homo sapiens, ACHN, read-out: IC50 in cell proliferation assay, cell line ACHN) was 14400 nM, the IC50 (134 cancer cell lines [2]; Homo sapiens, AN3-CA, read-out: IC50 in cell proliferation assay, cell line AN3-CA (FGFR2 p.N549K)) was 2330 nM and the IC50 (134 cancer cell lines [2]; Homo sapiens, ASPC1, read-out: IC50 in cell proliferation assay, cell line AsPC-1) was 210 nM. It also gave an IC50 (134 cancer cell lines [2]; Homo sapiens, AU565, read-out: IC50 in cell proliferation assay, cell line AU565 (ERBB2 amplification)) of over 31600 nM, an IC50 (134 cancer cell lines [2]; Homo sapiens, BT-20, read-out: IC50 in cell proliferation assay, cell line BT-20) of 9260 nM and an IC50 (134 cancer cell lines [2]; Homo sapiens, BT-474, read-out: IC50 in cell proliferation assay, cell line BT-474 (ERBB2 amplification)) of over 31600 nM. It also gave an IC50 (134 cancer cell lines [2]; Homo sapiens, BT-549, read-out: IC50 in cell proliferation assay, cell line BT-549) of over 31600 nM, an IC50 (134 cancer cell lines [2]; Homo sapiens, BXPC-3, read-out: IC50 in cell proliferation assay, cell line BxPC-3) of 472 nM and an IC50 (134 cancer cell lines [2]; Homo sapiens, C-33-A, read-out: IC50 in cell proliferation assay, cell line C-33 A) of 2.72 nM. The IC50 (134 cancer cell lines [2]; Homo sapiens, CAL-27, read-out: IC50 in cell proliferation assay, cell line CAL-27) was 61 nM, the IC50 (134 cancer cell lines [2]; Homo sapiens, CCF-STTG1, read-out: IC50 in cell proliferation assay, cell line CCF-STTG1) was over 31600 nM and the IC50 (134 cancer cell lines [2]; Homo sapiens, CCRF-CEM, read-out: IC50 in cell proliferation assay, cell line CCRF-CEM) was over 31600 nM. For the same compound, the IC50 (134 cancer cell lines [2]; Homo sapiens, COLO 205, read-out: IC50 in cell proliferation assay, cell line COLO 205 (BRAF p.V600E)) was 38 nM, the IC50 (134 cancer cell lines [2]; Homo sapiens, COLO-829, read-out: IC50 in cell proliferation assay, cell line COLO 829 (BRAF p.V600E)) was 117 nM and the IC50 (134 cancer cell lines [2]; Homo sapiens, DLD-1, read-out: IC50 in cell proliferation assay, cell line DLD-1) was 21400 nM. For the same compound, the IC50 (134 cancer cell lines [2]; Homo sapiens, DU-4475, read-out: IC50 in cell proliferation assay, cell line DU4475 (BRAF p.V600E)) was 88 nM, the IC50 (134 cancer cell lines [2]; Homo sapiens, Daoy, read-out: IC50 in cell proliferation assay, cell line Daoy) was over 31600 nM and the IC50 (134 cancer cell lines [2]; Homo sapiens, DoTc2-4510, read-out: IC50 in cell proliferation assay, cell line DoTc2 4510) was 32 nM. For the same compound, the IC50 (134 cancer cell lines [2]; Homo sapiens, EOL1, read-out: IC50 in cell proliferation assay, cell line EoL-1 (FIP1L1-PDGFRA)) was 92 nM, the IC50 (134 cancer cell lines [2]; Homo sapiens, FaDu, read-out: IC50 in cell proliferation assay, cell line FaDu) was 73 nM and the IC50 (134 cancer cell lines [2]; Homo sapiens, G-361, read-out: IC50 in cell proliferation assay, cell line G-361 (BRAF p.V600E)) was 225 nM. It also gave an IC50 (134 cancer cell lines [2]; Homo sapiens, HCC827, read-out: IC50 in cell proliferation assay, cell line HCC827 (EGFR exon19del)) of 9710 nM, an IC50 (134 cancer cell lines [2]; Homo sapiens, HCC4006, read-out: IC50 in cell proliferation assay, cell line HCC4006 (EGFR exon19del)) of 26800 nM and an IC50 (134 cancer cell lines [2]; Homo sapiens, HCT-15, read-out: IC50 in cell proliferation assay, cell line HCT 15) of over 31600 nM. It also gave an IC50 (134 cancer cell lines [2]; Homo sapiens, HCT-116, read-out: IC50 in cell proliferation assay, cell line HCT 116) of 2.26 nM, an IC50 (134 cancer cell lines [2]; Homo sapiens, HEC-1, read-out: IC50 in cell proliferation assay, HEC-1 cell line) of over 31600 nM and an IC50 (134 cancer cell lines [2]; Homo sapiens, HEC-1B, read-out: IC50 in cell proliferation assay, HEC-1-B cell line (EGFR p.A864V)) of 27 nM. For the same compound, the IC50 (134 cancer cell lines [2]; Homo sapiens, HL-60, read-out: IC50 in cell proliferation assay, HL-60 cell line) was 13 nM, the IC50 (134 cancer cell lines [2]; Homo sapiens, HT, read-out: IC50 in cell proliferation assay, HT cell line) was 14800 nM and the IC50 (134 cancer cell lines [2]; Homo sapiens, HT-1080, read-out: IC50 in cell proliferation assay, HT-1080 cell line) was 132 nM. It also gave an IC50 (134 cancer cell lines [2]; Homo sapiens, Hs746T, read-out: IC50 in cell proliferation assay, Hs 746.T cell line (MET exon14skip + amplification)) of 19400 nM, an IC50 (134 cancer cell lines [2]; Homo sapiens, Hs-578T, read-out: IC50 in cell proliferation assay, Hs 578T cell line) of 78 nM and an IC50 (134 cancer cell lines [2]; Homo sapiens, HuTu80, read-out: IC50 in cell proliferation assay, HuTu 80 cell line) of 413 nM. It also gave an IC50 (134 cancer cell lines [2]; Homo sapiens, J82, read-out: IC50 in cell proliferation assay, J82 cell line) of 265 nM, an IC50 (134 cancer cell lines [2]; Homo sapiens, Jurkat E6.1, read-out: IC50 in cell proliferation assay, Jurkat E6.1 cell line) of over 31600 nM and an IC50 (134 cancer cell lines [2]; Homo sapiens, K562, read-out: IC50 in cell proliferation assay, K-562 cell line) of 241 nM. For the same compound, the IC50 (134 cancer cell lines [2]; Homo sapiens, KATO III, read-out: IC50 in cell proliferation assay, KATO III cell line (FGFR2 amplification)) was 16500 nM, the IC50 (134 cancer cell lines [2]; Homo sapiens, KG-1, read-out: IC50 in cell proliferation assay, KG-1 cell line (FGFR1OP2-FGFR1)) was 10 nM and the IC50 (134 cancer cell lines [2]; Homo sapiens, KLE, read-out: IC50 in cell proliferation assay, KLE cell line) was over 31600 nM. For the same compound, the IC50 (134 cancer cell lines [2]; Homo sapiens, KMS-11, read-out: IC50 in cell proliferation assay, KMS-11 cell line (FGFR3 p.Y373C)) was over 31600 nM, the IC50 (134 cancer cell lines [2]; Homo sapiens, KU812, read-out: IC50 in cell proliferation assay, Ku812 cell line) was 73 nM and the IC50 (134 cancer cell lines [2]; Homo sapiens, Kasumi 1, read-out: IC50 in cell proliferation assay, Kasumi-1 cell line (KIT p.N822K)) was 345 nM. It also gave an IC50 (134 cancer cell lines [2]; Homo sapiens, LC-2-ad, read-out: IC50 in cell proliferation assay, LC-2/ad cell line (CCDC6-RET)) of 31000 nM, an IC50 (134 cancer cell lines [2]; Homo sapiens, LNCaP-Clone-FGC, read-out: IC50 in cell proliferation assay, LNCaP clone FGC cell line) of over 31600 nM and an IC50 (134 cancer cell lines [2]; Homo sapiens, LS174T, read-out: IC50 in cell proliferation assay, LS174T cell line) of 177 nM. It also gave an IC50 (134 cancer cell lines [2]; Homo sapiens, LS-411N, read-out: IC50 in cell proliferation assay, LS411N cell line (BRAF p.V600E)) of 75 nM, an IC50 (134 cancer cell lines [2]; Homo sapiens, LoVo, read-out: IC50 in cell proliferation assay, LoVo cell line) of 34 nM and an IC50 (134 cancer cell lines [2]; Homo sapiens, MCF7, read-out: IC50 in cell proliferation assay, MCF-7 cell line) of over 31600 nM. It also gave an IC50 (134 cancer cell lines [2]; Homo sapiens, MDA-MB-231, read-out: IC50 in cell proliferation assay, MDA-MB-231 cell line) of 1000 nM, an IC50 (134 cancer cell lines [2]; Homo sapiens, MDA-MB-453, read-out: IC50 in cell proliferation assay, MDA-MB-453 cell line) of 9170 nM and an IC50 (134 cancer cell lines [2]; Homo sapiens, MDA-MB-468, read-out: IC50 in cell proliferation assay, MDA-MB-468 cell line) of over 31600 nM. It also gave an IC50 (134 cancer cell lines [2]; Homo sapiens, MG-63, read-out: IC50 in cell proliferation assay, MG-63 cell line) of 6090 nM, an IC50 (134 cancer cell lines [2]; Homo sapiens, MIA PaCa-2, read-out: IC50 in cell proliferation assay, MIA PaCa-2 cell line) of 221 nM and an IC50 (134 cancer cell lines [2]; Homo sapiens, MKN-45, read-out: IC50 in cell proliferation assay, MKN45 cell line (MET amplification)) of 2680 nM. For the same compound, the IC50 (134 cancer cell lines [2]; Homo sapiens, MOLM-13, read-out: IC50 in cell proliferation assay, MOLM-13 cell line (FLT3 ITD)) was 822 nM.
